Data reported in the supplement of paper PMC10307832.

How the values were obtained:
Experiment in all cases: relative viability (nuclei count vs DMSO), 5 days (fraction); higher = more cells survive
[1] = compound: N#CC[C@H](C1CCCC1)n1cc(-c2ncnc3[nH]ccc23)cn1 [Ruxolitinib] + CC(=O)Nc1cccc(-n2c(=O)n(C3CC3)c(=O)c3c(Nc4ccc(I)cc4F)n(C)c(=O)c(C)c32)c1 [Trametinib] (partner 0.02 µM)
Summary of the method: (§1)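 Lung cancer cell lines in 1536-well plates got either a single drug or a fixed anchor-drug dose together with five library-drug doses (not always all listed) in √10 steps, by pin tool, on the day after seeding. Nuclei were counted after 5 days, and relative viability is the treated-to-vehicle ratio of nuclei counts. Values are medians of duplicate plates.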

[2] = compound: CS(=O)(=O)c1ccc(C(=O)Nc2ccc(Cl)c(-c3ccccn3)c2)c(Cl)c1 [Vismodegib] + Cc1nc(NC(=O)N2CCC[C@H]2C(N)=O)sc1-c1ccnc(C(C)(C)C(F)(F)F)c1 [Alpelisib] (partner 2 µM)
Summary of the method: as §1

[3] = compound: CS(=O)(=O)c1ccc(-c2cnc(N)c(C(=O)Nc3ccccc3)n2)cc1 [VE-821] + COc1cc2c(Oc3ccc(NC(=O)C4(C(=O)Nc5ccc(F)cc5)CC4)cc3F)ccnc2cc1OCCCN1CCOCC1 [Foretinib] (partner 0.25 µM)
Summary of the method: as §1

[4] = compound: CS(=O)(=O)c1ccc(C(=O)Nc2ccc(Cl)c(-c3ccccn3)c2)c(Cl)c1 [Vismodegib] + CC1(C)CCC(c2ccc(Cl)cc2)=C(CN2CCN(c3ccc(C(=O)NS(=O)(=O)c4ccc(N[C@H](CCN5CCOCC5)CSc5ccccc5)c(S(=O)(=O)C(F)(F)F)c4)cc3)CC2)C1 [Navitoclax] (partner 0.5 µM)
Summary of the method: as §1

Cell Line	relative viability ([1]; first compound 0.08 µM)	relative viability ([1]; first compound 0.253 µM)	relative viability ([1]; first compound 0.8 µM)	relative viability ([1]; first compound 2.53 µM)	relative viability ([1]; first compound 8 µM)	relative viability ([2]; first compound 0.08 µM)	relative viability ([2]; first compound 0.253 µM)	relative viability ([2]; first compound 0.8 µM)	relative viability ([2]; first compound 2.53 µM)	relative viability ([2]; first compound 8 µM)	relative viability ([3]; first compound 0.08 µM)	relative viability ([3]; first compound 0.253 µM)	relative viability ([3]; first compound 0.8 µM)	relative viability ([3]; first compound 2.53 µM)	relative viability ([3]; first compound 8 µM)	relative viability ([4]; first compound 0.08 µM)	relative viability ([4]; first compound 0.253 µM)	relative viability ([4]; first compound 0.8 µM)	relative viability ([4]; first compound 2.53 µM)	relative viability ([4]; first compound 8 µM)
NCI-H1755	0.803	0.777	0.796	0.549	0.694	0.921	0.912	0.957	0.868	0.942	0.956	0.855	0.845	0.92	0.765	0.961	0.957	1.04	0.934	0.985
NCI-H1793	0.406	0.42	0.466	0.338	0.364		0.642	0.77	0.809	0.671	0.749	0.669	0.589	0.85	0.55		0.481	0.504	0.522	0.373
NCI-H1915	0.315	0.311	0.325	0.153	0.253	0.996	1.09	1.07	1.03	1.12	1.15	1.08	1.03	1.09	0.912	0.773	0.805	0.747	0.729	0.759
NCI-H1944	0.391	0.386	0.422	0.304	0.369	0.768	0.862	0.744	0.809	0.777	0.917	0.84	0.694	0.862	0.487	0.994	1.05	1.04	1.02	0.999
